# Results: patent publication US8703951B2, “Synthesis of 4H-benzo[D]pyrrolo[1,2-A]thiazoles and indolizino[6,7-b]indole derivatives and their use as antitumor therapeutic agents” (Academia Sinica, priority 2011, dated 2014)
# Like-named read-outs stand apart in the source and are kept apart here.
# What was measured:
# [1] = test system: non-small cell lung carcinoma H1299; assay: In vitro cytotoxicity, Alamar blue assay, H1299; type: cell-based, human
# Description: (§1) Prostate cancer PC3, non-small cell lung carcinoma cells H1299, and human glioma cells U87 were purchased from the American Type Culture Collection (Rockville, Md.). OECM-1 (human gingival squamous cell carcinoma cells) was obtained from Dr C.-L. Meng (National Defense Medical College, Taiwan).^22
# (§2) In preparation for in vitro cytotoxicity assays, cells were cultured at an initial density 2−5×10^4 cells per milliliter. They were maintained in a 5% CO2-humidified atmosphere at 37° C. in RPMI medium 1640 (GIBCO/BRL) containing penicillin (100 units/mL), streptomycin (100 μg/mL, GIBCO/BRL), and 5% heat-inactivated FBS. For cells grown in suspension (such as CCRF-CEM and its sublines), cytotoxicity was measured, by using XTT microculture method^23 in 96-well microtiter plates.
# (§3) The cytotoxic effects of the newly synthesized compounds were determined in T-cell acute lymphocytic leukemia (CCRF-CEM) and their resistant subcell lines (CCRF-CEM/Taxol and CCRF-CEM/VBL) by the XTT assay^24 and human solid tumor cells (i.e. breast carcinoma MX-1 and colon carcinoma HCT-116) by the SRB assay^25 in a 72 h incubation using a microplate spectrophotometer as described previously.^25 After the addition of phenazine methosulfate-XTT solution, incubated at 37° C. for 6 h and absorbance at 450 and 630 nm was detected on a microplate reader (EL 340). The cytotoxicity of the newly synthesized compounds against non-small cell lung carcinoma H1299, prostate cancer PC3, oral cancer OECM-1 and glioma U87 were determined by the Alamar blue assay^26 in a 72 h incubation using a microplate spectrophotometer as described previously. After the addition of alamar blue solution, it was incubated at 37° C. for 6 h. Absorbance at 570 and 600 nm was detected on a microplate reader. IC50 values were determined from dose-effect relationship at six or seven concentrations of each drug using the CompuSyn software by Chou and Martin^27 based on the median-effect principle and plot.^28,29 Ranges given for Cisplatin were mean±SE (n=4).
# [2] = test system: oral cancer OECM-1; assay: In vitro cytotoxicity, Alamar blue assay, OECM-1; type: cell-based, human
# Description: as §1, §2, §3
# [3] = test system: prostate cancer PC3; assay: In vitro cytotoxicity, Alamar blue assay, PC3; type: cell-based, human
# Description: as §1, §2, §3
# [4] = test system: glioma U87; assay: In vitro cytotoxicity, Alamar blue assay, U87; type: cell-based, human
# Description: as §1, §2, §3
# [5] = test system: CCRF-CEM/Taxol; assay: In vitro cytotoxicity, XTT assay, CCRF-CEM/Taxol; type: cell-based, human; conditions: Table 5; for IC50: Homo sapiens, CCRF-CEM, Taxol-resistant subline, XTT, 72 h, read-out: Cell Growth inhibition (IC50 μM) CCRF-CEM/Taxol; for fold of cross-resistant vs IC50 of the parent cell line, CCRF-CEM/Taxol: number in brackets
# From the text: (§4) Human colon carcinoma HCT-116 cells and human prostate adenocarcinoma PC-3 cells were obtained from American Type Culture Collection (ATCC, Rockville, Md.). Human mammary carcinoma (MX-1) tumor cells were obtained from MSKCC cell bank. The CCRF-CEM human lymphoblastic leukemia cells and their vinblastine resistant subline (CCRF-CEM/VBL, 680-fold resistance in vitro) were obtained from Dr. William Beck of the University of Illinois, Chicago, and CCRF-CEM/Taxol (330-fold resistance in vitro). Resistant cells CCRF-CEM/taxol were produced by exposing the parent cells to increasing sublethal concentration (IC50-IC90) of paclitaxel for six months.
# as §2, §3
# [6] = test system: CCRF-CEM/VBL; assay: In vitro cytotoxicity, XTT assay, CCRF-CEM/VBL; type: cell-based, human; conditions: Table 5; for IC50: Homo sapiens, CCRF-CEM, vinblastine-resistant subline, XTT, 72 h, read-out: Cell Growth inhibition (IC50 μM) CCRF-CEM/VBL; for fold of cross-resistant vs IC50 of the parent cell line, CCRF-CEM/VBL: number in brackets
# From the text: as §4, §2, §3
# [7] = test system: human lymphoblastic leukemia (CCRF-CEM); assay: In vitro cytotoxicity, XTT assay, CCRF-CEM; type: cell-based; conditions: Homo sapiens, CCRF-CEM, Table 5, 72 h incubation, read-out: Cell Growth inhibition (IC50 μM) CCRF-CEM
# From the text: as §4, §2, §3
# [8] = test system: breast carcinoma MX-1; assay: In vitro cytotoxicity, SRB assay, MX-1; type: cell-based, human; conditions: Homo sapiens, Table 6, 72 h
# From the text: as §4, §2, §3
# [9] = test system: colon carcinoma HCT-116; assay: In vitro cytotoxicity, SRB assay, HCT-116; type: cell-based, human; conditions: Homo sapiens, HCT-116, Table 6, 72 h
# From the text: as §4, §2, §3
# [10] = Homo sapiens, NCI-H1299, Table 6, 72 h
# [11] = Homo sapiens, OECM1, Table 6, 72 h
smiles,measurement,setting,value
"N.N.[Cl][Pt][Cl] [Cisplatin, reference compound]",IC50,"[1]; Table 6, 72 h",16.5 ± 0.9 µM
same,IC50,"[1]; Table 7, 72 h",16.5 ± 0.9 µM
same,IC50,"[2]; Table 6, 72 h",2.44 ± 0.53 µM
same,IC50,"[2]; Table 7, 72 h, read-out: IC50 (μM) OECM1",2.44 ± 0.53 µM
same,IC50,"[3]; Table 6, 72 h",4.71 ± 0.66 µM
same,IC50,"[3]; Table 7, 72 h",4.71 ± 0.66 µM
same,IC50,"[4]; Table 6, 72 h",54.6 ± 3.33 µM
same,IC50,"[4]; Table 7, 72 h",54.6 ± 3.33 µM
"Cc1c(CO)c(CO)c2sc3ccccc3n12 [Compound 18a, (1-Methylbenzo[d]pyrrolo[2,1-b]thiazole-2,3-diyl)dimethanol]",IC50,[5],1.88 ± 0.007 µM
same,"fold of cross-resistant vs IC50 of the parent cell line, CCRF-CEM/Taxol",[5],1.93 ×
same,IC50,[6],1.86 ± 0.01 µM
same,"fold of cross-resistant vs IC50 of the parent cell line, CCRF-CEM/VBL",[6],1.91 ×
same,IC50,[7],0.97 ± 0.03 µM
same,IC50,[8],7.1 ± 0.037 µM
same,IC50,[9],4.44 ± 0.08 µM
"OCc1c(CO)c2sc3ccccc3n2c1-c1ccc(F)cc1 [Compound 18b, (1-(4-Fluorophenyl)benzo[d]pyrrolo[2,1-b]thiazole-2,3-diyl)dimethanol]",IC50,[1]; [10],9.27 ± 1.69 µM
same,IC50,[5],2.56 ± 0.012 µM
same,"fold of cross-resistant vs IC50 of the parent cell line, CCRF-CEM/Taxol",[5],2.41 ×
same,IC50,[6],3.72 ± 0.175 µM
same,"fold of cross-resistant vs IC50 of the parent cell line, CCRF-CEM/VBL",[6],3.50 ×
same,IC50,[2]; [11],6.03 ± 1.2 µM
same,IC50,"[3]; Homo sapiens, Table 6, 72 h",13.8 ± 2.15 µM
same,IC50,[7],1.06 ± 0.04 µM
same,IC50,[8],2.77 ± 0.005 µM
same,IC50,[9],9.59 ± 0.19 µM
same,IC50,"[4]; Homo sapiens, Table 6, 72 h",15.5 ± 1.31 µM
"OCc1c(CO)c2sc3ccccc3n2c1-c1ccc(F)c(F)c1 [Compound 18d, (1-(3,4-Difluorophenyl)benzo[d]pyrrolo[2,1-b]thiazole-2,3-diyl)dimethanol]",IC50,[1]; [10],21.4 ± 3.74 µM
same,IC50,[5],0.19 ± 0.004 µM
same,"fold of cross-resistant vs IC50 of the parent cell line, CCRF-CEM/Taxol",[5],100 ×
same,IC50,[6],0.28 ± 0.006 µM
same,"fold of cross-resistant vs IC50 of the parent cell line, CCRF-CEM/VBL",[6],1.47 ×
same,IC50,[2]; [11],8.48 ± 0.67 µM
same,IC50,"[3]; Homo sapiens, Table 6, 72 h",15.2 ± 1.86 µM
same,IC50,[7],0.19 ± 0.02 µM
same,IC50,"[4]; Homo sapiens, Table 6, 72 h",17.4 ± 1.86 µM
"OCc1c(CO)c2sc3ccccc3n2c1-c1ccc(Cl)c(Cl)c1 [Compound 18e, (1-(3,4-Dichlorophenyl)benzo[d]pyrrolo[2,1-b]thiazole-2,3-diyl)dimethanol]",melting point,,159 to 160 °C
"OCc1c(CO)c2sc3ccccc3n2c1-c1ccc(F)c(Cl)c1 [Compound 18f, (1-(3-Chloro-4-fluorophenyl)benzo[d]pyrrolo[2,1-b]thiazole-2,3-diyl)dimethanol]",melting point,,178 to 179 °C
"COc1ccc(-c2c(CO)c(CO)c3sc4ccccc4n23)cc1OC [Compound 18h, (1-(3,4-Dimethoxyphenyl)benzo[d]pyrrolo[2,1-b]thiazole-2,3-diyl)dimethanol]",melting point,,215 to 216 °C
"COc1cc(-c2c(CO)c(CO)c3sc4ccccc4n23)cc(OC)c1OC [Compound 18i, (1-(3,4,5-Trimethoxyphenyl)benzo[d]pyrrolo[2,1-b]thiazole-2,3-diyl)dimethanol]",melting point,,160 to 161 °C
